The target in one experiment is 5HT-2B receptor (Homo sapiens, UniProt P41595). The experiment in a line: PDSP radioligand displacement receptor assay, 5HT2B. Conditions: for inhibition at 10 µM: primary assay, 10 μM compound; for Ki: secondary binding assay. In kind it is binding. As for the experimental part: (§1) Receptor affinity assays were carried out according to methods as described at http://pdsp.med.unc.edu/ (accessed on Oct. 13, 2010).
(§2) Initial hits were obtained in radioligand displacement assays. […] Representative activity is highlighted in the table below showing in radioligand displacement activity at 10 μM of the in dicated compound. Ki was determined as indicated.

For another experiment, the target named is DAT (Homo sapiens, UniProt Q01959). The experiment in a line: PDSP radioligand displacement receptor assay, DAT. It is filed as binding. To be noted: for inhibition at 10 µM: radioligand displacement, primary assay, 10 μM compound; for Ki: secondary binding assay, test compound 1 to 10,000 nM. As for the experimental part:
as §1, §2

In another experiment the target is histamine H1 receptor (Homo sapiens, UniProt P35367). The experiment in a line: PDSP radioligand displacement receptor assay, H1. In kind it is binding. Conditions: for inhibition at 10 µM: radioligand displacement, primary assay, 10 μM compound; for Ki: secondary binding assay, test compound 1 to 10,000 nM. On the procedure:
as §1, §2

Another experiment has as its target kappa opioid receptor (Homo sapiens, UniProt P41145). The experiment is described as follows: PDSP radioligand displacement receptor assay, KOR. It is filed as binding. To be noted: for inhibition at 10 µM: radioligand displacement, primary assay, 10 μM compound; for Ki: secondary binding assay, test compound 1 to 10,000 nM. On the procedure: as §1, §2
For a further experiment, the system named is Ca2+ Channel. The experiment is described as follows: PDSP radioligand displacement receptor assay, Ca2+ channel. It is filed as binding. Conditions: for inhibition (10 μM) Ca2+ Channel: radioligand displacement, primary assay, 10 μM compound; for Ki: secondary binding assay, test compound 1 to 10,000 nM. As for the experimental part: as §1, §2
The test system of experiment [1] is dorsal root ganglia (DRG) cells. The experiment in a line: Dorsal root ganglion (DRG) assay, Fura-2 intracellular calcium with 25 mM KCl. It is filed as cell-based, mice. Conditions: pure compound 20 μg/mL, co-applied with 25 mM KCl, mouse DRG cells. On the procedure: For details of the isolation and culture of dorsal root ganglion neurons see Light et al. Briefly, dorsal root ganglia (DRG) cells from cervical and lumbar regions were obtained from mice and used in an assay with bacterial culture extracts and pure compounds. DRG cells were suspended in medium with additives and loaded with Fura-2 AM (Molecular Probes), a fluorescent dye used to measure intracellular calcium levels. Experiments were performed at room temperature (20 to 25° C.) in a 24-well plate format using fluorescence microscopy. Individual cells were treated as single samples, so that the individual responses of diverse neuron subtypes from the DRG could be examined. After baseline measurements, the cells were treated with 25 mM KCl solution and then washed. After return to baseline, bacterial extracts, fractions, or pure compounds were applied. This solution was then later replaced with 25 mM KCl solution. The use of KCl permitted observation of direct, modulatory, as well as inhibitory and excitatory effects of the samples assayed.
Representative data for assay results obtained with a sample of crude extract (100 μg/mL; FIG. 33), as well as compounds 1, 2, and 8 (20 μg/mL; respectively, […]). The y-axis indicates the ratio between 340 nm and 380 nm fluorescence. A higher value indicates more Ca^2+ in the cell. The x-axis indicates time. Each line indicates an individual DRG cell followed over the experimental time course. In each experiment, KCl is applied either once or twice, the compounds or extracts are incubated with cells, then the compound is co-applied with KCl.

The subject of experiment [2] is other serotonin receptors. The experiment in a line: PDSP primary assay, other serotonin receptors. It is filed as binding. Conditions: 5HT-2B versus other serotonin receptors. As for the experimental part:
as §1, §2

Where [3] appears, read: test compound 1 to 10,000 nM, read-out: Ki (nM) 5HT2B.

“Also recorded” adds a separate entry of the source. Read-outs that look alike come from different tables or passages of the source.

This is an account of results in US9751847B2, “Methods and compositions related to neuroactive thiazoline compounds” (University of Utah Research Foundation, priority 2010, dated 2017).

Chain of DAT (Q01959 whole entry, species assumed): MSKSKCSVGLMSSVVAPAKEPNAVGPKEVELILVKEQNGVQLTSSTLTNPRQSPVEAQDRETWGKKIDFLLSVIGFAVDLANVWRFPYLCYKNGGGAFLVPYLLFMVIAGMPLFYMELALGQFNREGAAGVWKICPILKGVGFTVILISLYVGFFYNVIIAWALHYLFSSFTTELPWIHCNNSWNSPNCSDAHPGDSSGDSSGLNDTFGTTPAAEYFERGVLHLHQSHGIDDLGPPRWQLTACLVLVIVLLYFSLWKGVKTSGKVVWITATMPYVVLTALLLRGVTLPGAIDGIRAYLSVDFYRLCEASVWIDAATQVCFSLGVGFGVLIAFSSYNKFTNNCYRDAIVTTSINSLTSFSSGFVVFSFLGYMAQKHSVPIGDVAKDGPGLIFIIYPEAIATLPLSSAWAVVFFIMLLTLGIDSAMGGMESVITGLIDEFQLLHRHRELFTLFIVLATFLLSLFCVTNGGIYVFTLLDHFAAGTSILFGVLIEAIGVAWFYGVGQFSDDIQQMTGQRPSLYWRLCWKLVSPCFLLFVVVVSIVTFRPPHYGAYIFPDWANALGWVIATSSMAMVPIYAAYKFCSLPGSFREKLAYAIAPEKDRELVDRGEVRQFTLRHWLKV
Chain of histamine H1 receptor (P35367 whole entry, species assumed): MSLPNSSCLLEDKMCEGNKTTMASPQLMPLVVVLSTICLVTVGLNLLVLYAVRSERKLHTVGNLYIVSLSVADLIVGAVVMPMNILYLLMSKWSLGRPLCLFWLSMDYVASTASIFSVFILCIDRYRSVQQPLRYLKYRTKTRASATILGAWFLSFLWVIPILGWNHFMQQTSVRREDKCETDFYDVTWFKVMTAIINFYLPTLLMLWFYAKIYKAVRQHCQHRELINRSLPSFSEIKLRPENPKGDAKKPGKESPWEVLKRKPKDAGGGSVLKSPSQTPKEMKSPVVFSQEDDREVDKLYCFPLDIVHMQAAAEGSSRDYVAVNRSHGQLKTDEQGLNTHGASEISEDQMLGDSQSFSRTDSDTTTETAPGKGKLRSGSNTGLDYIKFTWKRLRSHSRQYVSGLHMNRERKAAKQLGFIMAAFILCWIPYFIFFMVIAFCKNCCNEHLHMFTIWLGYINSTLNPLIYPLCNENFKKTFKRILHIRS
Chain of 5HT-2B receptor (P41595 whole entry): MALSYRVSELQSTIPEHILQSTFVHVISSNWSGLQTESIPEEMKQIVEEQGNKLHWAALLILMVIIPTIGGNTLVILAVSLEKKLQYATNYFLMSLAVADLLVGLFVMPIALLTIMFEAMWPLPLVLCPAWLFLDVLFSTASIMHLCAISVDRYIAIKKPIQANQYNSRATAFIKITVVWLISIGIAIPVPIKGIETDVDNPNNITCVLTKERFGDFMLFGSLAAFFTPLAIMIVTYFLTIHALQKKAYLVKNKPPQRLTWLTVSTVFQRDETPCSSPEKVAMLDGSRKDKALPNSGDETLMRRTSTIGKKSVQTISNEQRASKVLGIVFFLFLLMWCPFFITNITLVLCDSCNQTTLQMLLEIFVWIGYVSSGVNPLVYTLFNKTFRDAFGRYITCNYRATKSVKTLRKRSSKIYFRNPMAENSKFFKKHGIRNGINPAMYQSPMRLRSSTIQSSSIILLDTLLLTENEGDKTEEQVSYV
Chain of kappa opioid receptor (P41145 whole entry): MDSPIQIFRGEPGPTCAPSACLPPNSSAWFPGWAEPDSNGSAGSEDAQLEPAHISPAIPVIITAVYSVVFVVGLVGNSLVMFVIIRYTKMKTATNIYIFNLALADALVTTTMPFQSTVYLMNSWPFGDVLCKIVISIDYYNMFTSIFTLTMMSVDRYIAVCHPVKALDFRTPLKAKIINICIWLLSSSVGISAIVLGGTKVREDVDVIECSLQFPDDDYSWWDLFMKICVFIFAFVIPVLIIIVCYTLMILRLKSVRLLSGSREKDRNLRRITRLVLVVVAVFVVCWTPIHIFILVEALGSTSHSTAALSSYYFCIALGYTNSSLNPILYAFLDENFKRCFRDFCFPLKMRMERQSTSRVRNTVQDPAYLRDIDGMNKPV

`Cc1sc(-c2ccccc2O)nc1C=O` [Compound 5, 2-(2-hydroxyphenyl)-5-methylthiazole-4-carbaldehyde]: the inhibition at 10 µM on 5HT-2B receptor (radioligand displacement) was 77%; at DAT it was 88.3%; on histamine H1 receptor it was 42.5%; at kappa opioid receptor, 37.1%. The Ki on 5HT-2B receptor (setting [3]) turned out to be 1540 nM; at DAT, 5180 nM. Further, the “inhibition (10 μM) Ca2+ Channel” value in the experiment on Ca2+ Channel is reported as −18.9%.
Consider `C[C@@H]1SC(c2ccccc2O)=N[C@@H]1CO` [Compound 2, 2-((4R,5S)-4-(hydroxymethyl)-5-methyl-4,5-dihydrothiazol-2-yl)phenol], for which the “response in DRG assay (Ca2+ influx)” value in experiment [1] is recorded as “inhibitory response; also recorded: decreased Ca^2+ influx”. The inhibition at 10 µM on 5HT-2B receptor (radioligand displacement) came to 89.7%; at DAT, 6%; on histamine H1 receptor, 45.8%; on kappa opioid receptor, 60.8%. Also, the Ki was 505 nM on 5HT-2B receptor (setting [3]), over 10000 nM on kappa opioid receptor and 6600 nM at Ca2+ Channel. In addition, the “selectivity for the 5HT-2B receptor versus the other serotonin receptors” value in experiment [2] is reported as at least 20 fold.
Take `NC(=O)C1CSC(c2ccccc2O)=N1` (stereo not drawn) [Compound 8, 2-(2-hydroxyphenyl)-4,5-dihydrothiazole-4-carboxamide]: the “response in DRG assay (Ca2+ influx)” value in experiment [1] is on record as “excitatory response; also recorded: increased Ca^2+ influx”. The inhibition at 10 µM at 5HT-2B receptor (radioligand displacement) was 65.8%; on DAT it was 13.8%; on histamine H1 receptor it was 71.6%; at kappa opioid receptor, 50.4%. In addition, the Ki on 5HT-2B receptor (setting [3]) came to 1260 nM; at histamine H1 receptor, 678 ± 46 nM; at kappa opioid receptor it was 3710 nM. The “inhibition (10 μM) Ca2+ Channel” value with Ca2+ Channel is reported as −3.4%.
Take `C[C@@H]1SC(c2ccccc2O)=N[C@H]1[C@H]1SC[C@](C)(C(=O)O)N1C` [Compound 10, (2R,4S)-2-((4R,5S)-2-(2-hydroxyphenyl)-5-methyl-4,5-dihydrothiazol-4-yl)-3,4-dimethylthiazolidine-4-carboxylic acid]: the inhibition at 10 µM is 40.3% at 5HT-2B receptor (radioligand displacement), -0.3% at DAT, -3% at histamine H1 receptor and 31.9% at kappa opioid receptor. In addition, the inhibitory constant (Ki) at 5HT-2B receptor (setting [3]) turned out to be 4700 nM; at Ca2+ Channel it was 9750 nM. For the same compound, the “inhibition (10 μM) Ca2+ Channel” value in the experiment on Ca2+ Channel is reported as 110.4%.
For `OC[C@@H]1CSC(c2ccccc2O)=N1` [Compound 1, (R)-2-(4-(hydroxymethyl)-4,5-dihydrothiazol-2-yl)phenol], the “response in DRG assay (Ca2+ influx)” value in experiment [1] was “excitatory response; also recorded: increased Ca^2+ influx”. In addition, the inhibition at 10 µM at 5HT-2B receptor (radioligand displacement) was 79.2%; on DAT, -1.5%; on histamine H1 receptor, 39%; at kappa opioid receptor it was 57.2%. The figures for the Ki on 5HT-2B receptor (setting [3]) and on kappa opioid receptor were 1360 nM and over 10000 nM, respectively. In addition, the “inhibition (10 μM) Ca2+ Channel” value in the experiment with Ca2+ Channel is reported as −0.7%.
`NC(=O)c1csc(-c2ccccc2O)n1` [Compound 7, 2-(2-hydroxyphenyl)thiazole-4-carboxamide]: the inhibition at 10 µM on 5HT-2B receptor (radioligand displacement) worked out at 84.9%; on DAT, 2.4%; on histamine H1 receptor, 88%; at kappa opioid receptor it was 31.8%. Further, the inhibition constant Ki on 5HT-2B receptor (radioligand displacement, read-out: Ki (nM) vs 5-HT2B) is 1030 ± 76 nM; at histamine H1 receptor, 517 ± 28 nM. Besides, the “inhibition (10 μM) Ca2+ Channel” value in the experiment on Ca2+ Channel was determined as 29.6%.
Take `C[C@@H]1SC(c2ccccc2O)=N[C@H]1[C@@H]1SC[C@](C)(C(=O)O)N1C` [Compound 9, (2S,4S)-2-((4R,5S)-2-(2-hydroxyphenyl)-5-methyl-4,5-dihydrothiazol-4-yl)-3,4-dimethylthiazolidine-4-carboxylic acid]: the inhibition at 10 µM at 5HT-2B receptor (radioligand displacement) came out at 68%; at DAT, 83.8%; at histamine H1 receptor, 16.3%; on kappa opioid receptor, 41.4%. The inhibition constant Ki on 5HT-2B receptor (setting [3]) was 3920 nM; on DAT, over 10000 nM. The “inhibition (10 μM) Ca2+ Channel” value in the experiment with Ca2+ Channel is given as 0.1%.
